Assay results reported in patent US20260356839A1, “DIRECT SYNTHESIS OF N-(3-SUBSTITUTED-CHROMAN-4-YL)-7H- PYRROLO[2,3-D]PYRIMIDIN-4-AMINES AND DERIVATIVES THEREOF” (MITOKININ, INC., priority 2022, published 2026).

What was measured:
Type in all cases: cell-based
[1] = tested on: HeLa cells expressing mt-Keima and YFP-Parkin (HeLa MKYP); assay: Human mt-Keima Mitophagy Assay; settings: 16 hrs compound, then 1 μM FCCP/oligomycin for 6 hours, read-out: Mitophagy induction EC50
Experimental: (§1) HeLa cells expressing mt-Keima and YFP-Parkin (HeLa MKYP) were plated at 10,000 cells/well in 96 well plates along with Mitokinin compounds at various concentrations. Following 16 hrs of incubation, cells were treated with 1 μM FCCP/oligomycin for 6 hours, then analyzed via FACS for the presence of mitochondria in lysosomes (as determined by an emissions spectrum shift from the pH-sensitive mt-Keima tag). Additionally, cells treated with 25 μM Mitokinin compound but not treated with FCCP/oligomycin were analyzed for cytotoxicity.
The above compound was prepared using the synthetic methods detailed herein, and evaluated for PINK1 activity. Additional exemplary PINK1 modulators for which the synthetic methods described herein can be used are described in WO 2021/168446

[2] = Cytotoxicity in the mt-Keima assay cells (FACS, DAPI); settings: human, hela mkyp cells
Experimental: as §1

[3] = In Vitro Mitotoxicity (glucose/galactose) Assay; settings: human, skov3 cells
Experimental: Briefly, SKOV3 cells (ATCC HTB-77) were plated in DMEM (Corning 10-013-CV) medium containing 25 mM glucose or DMEM with no glucose (Gibco 11966-025) supplemented with 10 mM galactose at 9,000 cells/well in 96 well plates (Corning costar 3610). 24 hrs later, compounds, in DMSO, were added at various concentrations to a final 0.1% DMSO for all wells. Following 20 hours of incubation with compound, all wells had their growth medium replaced with DMEM containing 25 mM of glucose followed by the addition of Promega CellTiter-Glo® reagent as per manufacturer's instructions. After a 15 minute incubation cellular ATP levels were read out using a Promega GloMax® DiscoverMicroplate Reader.
The ratio of relative CellTiter-Glo values from cells grown in galactose to cells grown in glucose was determined (gal/glc ratio). The gal/glc ratio vs concentration is then graphed, and non-linear regression is used to find the highest concentration of MTK compound at which gal/glc>0.80 (the “highest mito-safe dose”, or IC20). The Mito-Safety Index in Table 2 is equal to the highest mito-safe dose divided by the mt-Keima EC50 dose.

EC50 [1]: 130 nM
Structure (SMILES): C[C@@H]1CN([C@H]2COc3cc(F)ccc3[C@@H]2Nc2ncnc3[nH]c(C(F)(F)F)cc23)CCO1
MNTC ([2]; no FO, safe means DAPI + < 20%, read-out: Highest safe dose (cytotoxicity; no FO; safe means DAPI+ < 20%)): 21.9 µM
cytotoxicity ([2]; with 1 μM FCCP/oligomycin (FO), read-out: Max % death with 1 μM FO): 29.6%
selectivity ratio ([3]; highest mito-safe dose divided by the mt-Keima EC50 dose, read-out: Mito-Safety Index (highest safe dose/EC50)): 135
IC20 at 20 h ([3]; mitotox or cytotox, highest concentration at which gal/glc > 0.80 (IC20), 20 hours, read-out: Highest safe dose (mitotox or cytotox)): 17.3 µM
